Assay results from patent US10328075B2, “Method of treatment and compounds for use therein” (Baker Heart and Diabetes Institute, priority 2015, dated 2019).
Like-named read-outs stand apart in the source and are kept apart here.

Biological target: T1, hFPR2 (Homo sapiens, UniProt P25090)
T1 construct: expressed in transfected cells
T1 sequence (P25090 1-351): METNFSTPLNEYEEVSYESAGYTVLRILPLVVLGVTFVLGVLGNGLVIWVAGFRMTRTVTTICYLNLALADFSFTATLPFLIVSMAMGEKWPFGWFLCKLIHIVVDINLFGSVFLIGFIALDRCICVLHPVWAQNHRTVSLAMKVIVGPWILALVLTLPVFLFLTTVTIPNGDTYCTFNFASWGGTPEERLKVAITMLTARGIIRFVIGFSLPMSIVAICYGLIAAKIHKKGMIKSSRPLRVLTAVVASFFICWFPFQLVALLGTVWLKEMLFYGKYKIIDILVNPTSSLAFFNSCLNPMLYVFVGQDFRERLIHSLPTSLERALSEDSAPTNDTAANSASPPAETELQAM
Assay: [Ca2+]i mobilization in FlpIn-CHO cells stably expressing hFPR2
Assay type: cell-based
Settings: for Emax: Flp-In-CHO; for EC50: read-out: pEC50, [Ca^2+]i mobilization, hFPR2-Flpln-CHO (converted); for ΔLog(τ/KA), [Ca^2+]i mobilization, hFPR2-Flpln-CHO: normalized transduction coefficient, reference agonist Cmpd43; for Log(τ/KA), [Ca^2+]i mobilization, hFPR2-Flpln-CHO: transduction coefficient
Source text: cDNDA construct and generation of stable cell lines: cDNA in pcDNA3.1^+ encoding the human formyl peptide receptors (FPR) subtypes, hFPR1, hFPR2 and hFPR3 was obtained from Invitrogen. The sequences for 3 hFPR receptors were amplified by PCR and cloned into the Gateway entry vector, pDONR202™, using the BP clonase enzyme mix, according to the manufactures' instructions (Invitrogen Inc, Carlsbad, Calif., USA). All hFPR receptors constructs in pDONR201™ were subsequently transfected into the pEF5/FRT/V5/dest vector using the LR clonase enzyme mix (Invitrogen). Receptor constructs (pEF5/FRT/V5/dest) were used to transfect FIp-In CHO cells as described previously (Valant C et al., PNAS, 2014). Cells were selected using 500 μg/mL hydromycin to generate cell lines stably expressing each receptor construct. Cells were maintained and cultured in high glucose DMEM supplemented with 10% FBS, 16 mM HEPES and 500 μg/mL hydromycin at 37° C. under a humidified atmosphere containing 5% CO2.
In the various assays described below, cells were plated into 96-well transparent cell culture plates at 4×10^4 cells per well, cultured overnight in serum-free media at 37° C. in 5% CO2.
Intracellular calcium mobilization: Intracellular calcium mobilization was assayed as described previously (Keov, P et al., 2014). Briefly, cells were washed once using HEPES buffered saline (HBS) solution [150 mM NaCl, 2.2 mM CaCl2, 2.6 mM KCl, 1.2 mM MgCl2, 10 mM HEPEs, 10 mM D-Glucose, 0.5% (w/v) bovine serum albumin (BSA) and 4 mM probenecid] at pH 7.4, then treated with Fluo-4-AM (1 μM, in HBS/BSA/probenecid) for 60 min at 37° C. in 5% CO2 in the dark. Cells were then further washed and placed in HBS/BSA/probenecid solution for ligation addition and assay using the FLEXstation 3 plate reader (Molecular Devices, Sunnyvale, Calif.). For all experiments, peak change in fluorescence signal was normalized to the cellular response to 100 μM ATP, which was used as an internal positive control.
Data analysis: All data were analysed using GraphPad Prism 6.0 (GraphPad Software, San Deigo, Calif., USA). Where appropriate, concentration-response curves were fitted to derive the maximal agonist effect (Emax), and the ligand potency estimate (pEC50), where Emax is the maximal possible response of the system (not the agonist), basal is the basal level of response in the absence of agonist, and pEC50 is the negative logarithm of the agonist concentration that gives a response halfway between Emax and basal.
In the present study, FIp-IN CHO cells and Gateway plasmid were obtained from Invitrogen Inc (Carlsbad, Calif., USA). The sequences for all 3 known human FPRs (hFPR1, hFPR2 and hFPR3) were amplified by PCR and cloned into the Gateway entry vector, pDONR202TM, using the BP clonase enzyme mix, according to the manufacturers' instructions. The hFPR pDONR201TM constructs were subsequently transfected into the pEF5/FRT/V5/dest vector using the LR clonase enzyme mix (Invitrogen). Receptor constructs (pEF5/FRT/V5/dest) were used to transfect FIp-IN CHO cells, as described previously (Valant et al. 2014). Cells were selected using 500 μg/mL hydromycin to generate cell lines stably expressing each human receptor construct. Cells were maintained and cultured in high glucose Dulbecco's modified eagle medium (DMEM) supplemented with 10% fetal bovine serum (FBS, from JRH Biosciences, Lenexa, Kans., USA) and 500 μg/mL hydromycin B (Invitrogen Inc) at 37° C. under a humidified atmosphere containing 5% CO2. Cell were plated into 96-well transparent cell culture plates at 4×10^4 cells per well, cultured overnight in serum-free media at 37° C. in 5% CO2.
(ii) Intracellular Ca2+ mobilization: Intracellular Ca2+ mobilization was determined in stably-transfected recombinant hFPR CHO cells, as described previously (Valant et al. 2014).

[1] = Table 1, percentage of [Ca^2+]i mobilization elicited by ATP, read-out: Emax (%), [Ca^2+]i mobilization, hFPR2-Flpln-CHO
[2] = Table 8, percent of response elicited by ATP, read-out: Emax, [Ca^2+]i mobilization, hFPR2-Flpln-CHO

Compound `CC(C)C1C(NC(=O)Nc2ccc(Cl)cc2)C(=O)N(c2ccccc2)N1C` (centres unmarked) [BIDI-002] has an Emax [1] of 51 ± 3%, an Emax [2] of 51 ± 3% and an EC50 (Table 1) of 20.9 nM. The “ΔLog(τ/KA), [Ca^2+]i mobilization, hFPR2-Flpln-CHO” value (Table 8) was 0.0, the EC50 (Table 8) was 20 nM and the “Log(τ/KA), [Ca^2+]i mobilization, hFPR2-Flpln-CHO” value (Table 8) was 7.7 ± 0.3.
In the case of `CSCC[C@H](NC=O)C(=O)N[C@@H](CC(C)C)C(=O)N[C@@H](Cc1ccccc1)C(=O)O` [fMLP, N-formyl-Met-Leu-Phe], the Emax [1] is reported as 38 ± 4%, the Emax [2] is reported as 38 ± 4% and the “ΔLog(τ/KA), [Ca^2+]i mobilization, hFPR2-Flpln-CHO” value (Table 8) is reported as −2.2 ± 0.3. The “Log(τ/KA), [Ca^2+]i mobilization, hFPR2-Flpln-CHO” value (Table 8) was 5.4 ± 0.1 and the “Potency range of Ca^2+ mobilization in hFPR2-CHO cells” value (in words) was “micromolar range”.
